Results reported in patent US9073879B2, “Oxazole derivatives useful as modulators of FAAH” (MERCK SHARP & DOHME CORP., priority 2010, dated 2015).

Assays:
[1] = biological target: T1, human FAAH (Homo sapiens, UniProt O00519); experiment: FAAH whole cell assay (human Whole cell, FAAH_CHO, AAMCA substrate); type: cell-based; details: CHO cells expressing human FAAH, whole cell format; read-out: human cell_IC50
T1 construct: The full length FAAH was subcloned into the mammalian expression vector, pcDEF.neo, using XbaI and EcoRI restriction sites; expressed in transfected cells
T1 sequence (O00519 1-579): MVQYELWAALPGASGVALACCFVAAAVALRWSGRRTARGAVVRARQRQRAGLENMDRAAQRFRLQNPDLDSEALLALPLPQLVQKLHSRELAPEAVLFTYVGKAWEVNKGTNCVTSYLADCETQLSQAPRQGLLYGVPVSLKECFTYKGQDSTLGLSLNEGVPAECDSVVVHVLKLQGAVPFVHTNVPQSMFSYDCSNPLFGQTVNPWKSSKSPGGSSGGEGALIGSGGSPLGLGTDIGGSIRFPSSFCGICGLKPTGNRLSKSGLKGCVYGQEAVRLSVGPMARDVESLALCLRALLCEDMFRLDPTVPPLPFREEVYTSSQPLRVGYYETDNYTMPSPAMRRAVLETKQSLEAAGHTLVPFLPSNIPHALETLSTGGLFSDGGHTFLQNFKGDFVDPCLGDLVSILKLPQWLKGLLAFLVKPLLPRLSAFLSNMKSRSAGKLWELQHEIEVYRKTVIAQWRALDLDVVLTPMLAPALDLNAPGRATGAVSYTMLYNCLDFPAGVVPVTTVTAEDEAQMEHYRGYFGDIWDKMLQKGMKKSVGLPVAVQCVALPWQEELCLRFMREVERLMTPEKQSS
Text: (§1) To assist in assay development stable cell lines for human, murine and rat full length FAAH were developed. Human FAAH cDNA (Accession No: NM_001441.1) was purchased from Origene (Rockville, Md.). The full length FAAH was subcloned into the mammalian expression vector, pcDEF.neo, using XbaI and EcoRI restriction sites and used for stable cell line generation.
Murine (accession number NM_010173) and Rat FAAH (accession number NM_024132) was amplified by reverse transcriptase polymerase chain reaction (RT-PCR) from brain cDNA (BD Biosciences, San Jose, Calif.) using primers 1 and 2 or primers 1 and 3 respectively (see Table). The resulting PCR product was ligated into pCR4 TOPO and DNA sequence confirmed. The full length murine FAAH was subcloned into the mammalian expression vector, pcDEFneo using either EcoRI (murine) or KpnI and EcoRI (rat) restriction sites. Chinese hamster ovary cells (CHO) were transfected following manufacturers protocol (AMAXA). Forty eight hours post transfection, cells were trypsinized and transferred to 96 well plates in Iscove's DMEM media supplemented with 2 mM Glutamine, 10% fetal calf serum, 1 mg/ml geneticin and HT Supplement (0.1 mM sodium hypoxanthine, 0.016 mM thymidine) in order to isolate single clones. Following selection in geneticin, individual clones were selected and FAAH activity was assessed using a whole cell fluorescent anandamide assay, modified from Ramarao et al (2005). Following removal of tissue culture media cells were dislodged following addition of Cellstripper (Mediatech, Inc. Manassas, Va.) and transferred to 96 well black clear bottom assay plate, centrifuged at 1,000 rpm for 3 mins and media removed and replaced with assay buffer (50 mM Tris pH8.0, 1 mM EDTA, 0.1% fatty acid free BSA). The reaction was initiated by addition of fluorescent substrate, AMC Arachidonoyl Amide (Cayman Chemical, Ann Arbor, Mich.) to 1 μM and reaction allowed to proceed for 2 hours at room temperature. Release of fluorescence was monitored in a CytoFluor Multiplate Reader. Cells expressing the highest amount of FAAH activity were selected for study with FAAH inhibitors.
(§2) Assays are performed on either cell lysate or microsome fractions prepared as described or in whole cell format employing either the fluorescent substrate AAMCA (Cayman chemical, Ann Arbor, Mich.) or ^3H-anandamide ([ETHANOLAMINE-1-3H] American Radiolabeled Chemicals; 1 mCi/ml). The cell lysate or microsome assay is performed in black PerkinElmer OptiPlates-384F by adding FAAH_CHO (whole cell (shown as human Whole cell or Human WC), cell lysate (shown as human lysate of human LY) or microsome) in assay buffer (50 mM Phosphate, pH 8.0, 1 mM EDTA, 200 mM KCl, 0.2% glycerol, 0.1% fatty acid free BSA) to each well, followed by either DMSO or compound and allowed to incubate at 22-25° C. for fifteen minutes. AAMCA substrate was used to achieve a final concentration of 1 μM and reaction allowed to proceed at room temperature for 1-3 hours. Fluorescent release as a measure of FAAH activity was monitored by reading the plate in an Envision plate Reader (Ex: 360/40 nM; Em: 460/40 nM). Whole cell assay is conducted with cells harvested after rinsing tissue culture flasks three times with Ca^++Mg^++ free PBS, incubating for 10 min in Enzyme free dissociation media and centrifuging for 5 minutes at 1,000 rpm in table top centrifuge. Cells are resuspended in assay buffer at desired cell number in (4×10^4 cells/assay in 96-well format; 1×10^4 cells/assay in 384-well format) and assayed as described.

[2] = biological target: T1, human FAAH; experiment: FAAH cell lysate assay (human lysate, FAAH_CHO, AAMCA substrate); type: biochemical; details: lysate of CHO cells expressing human FAAH; read-out: human lysate_IC50
Text: as §1
CHO cells expressing FAAH were used to prepare either crude cell lysate or microsome fractions. To harvest cells, tissue culture media was decanted, the monolayer washed three times with Ca^++Mg^++ free PBS and cells recovered after 15 mm in enzyme free dissociation media (Millipore Corp, Billerica, Mass.). Cells were collected by centrifuging at 2000 rpm for 15 min. and the cell pellet re-suspended with 50 mM HEPES (pH 7.4) containing 1 mM EDTA and the protease inhibitors aprotinin (1 mg/ml) and leupeptin (100 μM). The suspension was sonicated at 4° C. and the cell lysate recovered after centrifuging at 12,000×g (14,600 rpm, SS34 rotor) for 20 min at 4° C. to form a crude pellet of cell debris, nuclei, peroxisomes, lysosomes, and mitochondria; the supernatant or cell lysate was used for FAAH enzyme assay. In some cases, microsomes fractions enriched in FAAH were prepared by centrifuging the cell lysate further at 27,000 rpm (100,000×g) in SW28 rotor for 50 minutes at 4° C. The pellet containing FAAH-enriched microsomes was re-suspend in 50 mM HEPES, (pH 7.4) 1 mM EDTA, and any remaining DNA sheared by passage of material through a 23 gauge needle and aliquots of enzyme were store at −80° C. prior to use.
(American Radiolabeled Chemicals; 1 mCi/ml) with FAAH (Life Sciences (1995), 56, 1999-2005 and Journal of Pharmacology and Experimented Therapeutics (1997), 283, 729-734), Analytical. Biochemistry (2003), 318:270-5. In addition, routine assays were performed monitoring hydrolysis of araehidonyl-7-amino-4-methylcoumarin amide (AAMCA) by following increase in fluorescence upon release of 7-amino 4-methyl coumarin (λEX=355 nm, (λEM=460 nm). Analytical. Biochemistry (2005). 343:143-51
as §2

Compound	IC50 [1] [nM]	IC50 [2] [nM]
CS(=O)(=O)c1ccc(NC(=O)c2nc(-c3ccc(F)cc3)oc2Sc2ccc(Cl)cn2)cc1 [Example A5.1, 5-[(5-chloropyridin-2-yl)sulfanyl]-2-(4-fluorophenyl)-N-[4-(methylsulfonyl)phenyl]-1,3-oxazole-4-carboxamide]	388	61
CS(=O)(=O)N1CCC(NC(=O)c2nc(-c3ccc(F)cc3)oc2Sc2ccc(Cl)cn2)CC1 [Example A5.2, 5-[(5-chloropyridin-2-yl)sulfanyl]-2-(4-fluorophenyl)-N-[1-(methylsulfonyl)piperidin-4-yl]-1,3-oxazole-4-carboxamide]	400	57
COC(=O)c1ccc(NC(=O)c2nc(-c3ccc(F)cc3)oc2Sc2ccc(Cl)cn2)cc1 [Example A5.3, methyl 4-[({5-[(5-chloropyridin-2-yl)sulfanyl]-2-(4-fluorophenyl)-1,3-oxazol-4-yl}carbonyl)amino]benzoate]	39	10
Fc1ccc(-c2nc(COc3ccc4[nH]ncc4c3)c(Sc3ccc(Cl)cn3)o2)cc1 [Example B2.1, 5-({5-[(5-chloropyridin-2-yl)sulfanyl]-2-(4-fluorophenyl)-1,3-oxazol-4-yl}methoxy)-1H-indazole]	20	3
CSc1ccc(OCc2nc(-c3ccc(F)cc3)oc2Sc2ccc(Cl)cn2)cc1 [Example B2.2, 5-chloro-2-{[2-(4-fluorophenyl)-4-{[4-(methylsulfanyl)phenoxy]methyl}-1,3-oxazol-5-yl]sulfanyl}pyridine]	507	55
CS(=O)(=O)c1ccc(OCc2nc(-c3ccc(F)cc3)oc2Sc2ccc(Cl)cn2)cc1 [Example B2.3, 5-chloro-2-{[2-(4-fluorophenyl)-4-{[4-(methylsulfonyl)phenoxy]methyl}-1,3-oxazol-5-yl]sulfanyl}pyridine]	535	54
Fc1ccc(-c2nc(COc3ccc4c(c3)OCO4)c(Sc3ccc(Cl)cn3)o2)cc1 [Example B2.4, 2-({4-[(1,3-benzodioxol-5-yloxy)methyl]-2-(4-fluorophenyl)-1,3-oxazol-5-yl}sulfanyl)-5-chloropyridine]	224	24
COC(=O)c1ccc(OCc2nc(-c3ccc(F)cc3)oc2Sc2ccc(Cl)cn2)cn1 [Example B2.5, methyl 5-({5-[(5-chloropyridin-2-yl)sulfanyl]-2-(4-fluorophenyl)-1,3-oxazol-4-yl}methoxy)pyridine-2-carboxylate]	143	20
N#Cc1ccc(OCc2nc(-c3ccc(F)cc3)oc2Sc2ccc(Cl)cn2)cc1 [Example B2.6, 4-({5-[(5-chloropyridin-2-yl)sulfanyl]-2-(4-fluorophenyl)-1,3-oxazol-4-yl}methoxy)benzonitrile]	360	47
CC(O)c1ccc(OCc2nc(-c3ccc(F)cc3)oc2Sc2ccc(Cl)cn2)cc1 (stereo not drawn) [Example B2.7, 1-[4-({5-[(5-chloropyridin-2-yl)sulfanyl]-2-(4-fluorophenyl)-1,3-oxazol-4-yl}methoxy)phenyl]ethanol]	201	12
OC(c1ccc(OCc2nc(-c3ccc(F)cc3)oc2Sc2ccc(Cl)cn2)cc1)C(F)(F)F (stereo not drawn) [Example B2.8, 1-[4-({5-[(5-chloropyridin-2-yl)sulfanyl]-2-(4-fluorophenyl)-1,3-oxazol-4-yl}methoxy)phenyl]-2,2,2-trifluoroethanol]	513	130
COC(=O)c1ccc(OCc2nc(-c3ccc(F)cc3)oc2Sc2ccc(Cl)cn2)nc1 [Example B2.9, methyl 6-({5-[(5-chloropyridin-2-yl)sulfanyl]-2-(4-fluorophenyl)-1,3-oxazol-4-yl}methoxy)pyridine-3-carboxylate]	10	2
Fc1ccc(-c2nc(COc3ccc4[nH]ccc4c3)c(Sc3ccc(Cl)cn3)o2)cc1 [Example B2.10, 5-({5-[(5-chloropyridin-2-yl)sulfanyl]-2-(4-fluorophenyl)-1,3-oxazol-4-yl}methoxy)-1H-indole]	298	56
Clc1ccc(Sc2oc(C3CCOCC3)nc2COc2ccc3[nH]ncc3c2)cc1 [Example B2.17, 5-({5-[(4-chlorophenyl)sulfanyl]-2-(tetrahydro-2H-pyran-4-yl)-1,3-oxazol-4-yl}methoxy)-1H-indazole]	97	
COC(=O)[C@H]1CC[C@@H](NCc2nc(-c3ccc(F)cc3)oc2Sc2ccc(Cl)cn2)CC1 [Example B5.11, methyl cis-4-[({5-[(5-chloropyridin-2-yl)sulfanyl]-2-(4-fluorophenyl)-1,3-oxazol-4-yl}methyl)amino] cyclohexanecarboxylate]	50	
O[C@H]1CC[C@H](NCc2nc(C3CCOCC3)oc2Sc2ccc(Cl)cc2)CC1 [Example B5.13, trans-4-[({5-[(4-chlorophenyl)sulfanyl]-2-(tetrahydro-2H-pyran-4-yl)-1,3-oxazol-4-yl}methyl)amino] cyclohexanol]	2830	
COC(=O)[C@H]1CC[C@H](NCc2nc(C3CCOCC3)oc2Sc2ccc(Cl)cc2)CC1 [Example B5.14, methyl trans-4-[({5-[(4-chlorophenyl)sulfanyl]-2-(tetrahydro-2H-pyran-4-yl)-1,3-oxazol-4-yl}methyl)amino] cyclohexanecarboxylate]	27	
